Numbered stars: 1 amine (or outer) side, 2 acyl side, 3 side chain; on linkers, the order of the positions; unused ones are H or OH. Square brackets hold non-standard residues; d marks the D form. Side chains are listed from the residue outwards. Peptide text beside a SMILES is read from it. * marks the point of attachment. DOTA = O=C(O)CN1CCN(CC(=O)O)CCN(CC(=O)*)CCN(CC(=O)O)CC1; d(γGlu) = O=C(O)[C@@H](CCC(=O)[*:2])N[*:1]; 1Nal = N[C@@H](Cc1cccc2ccccc12)C(=O)O; NMeNle = CCCC[C@H](NC)C(=O)O; PEG4 = NCCOCCOCCOCCOCCC(=O)O
Key:
[1] = test system: GSTK1; assay: Western blot of GSTK1 expression; type: cell-based, rat; details: cultured AR42J cells, 24 h
Protocol: pathway analysis, and Reactome pathway analysis. GO enrichment analysis was conducted using clusterProfiler (v4.0.5). KEGG pathway enrichment was analyzed using clusterProfiler, focusing on pathways relevant to radiotherapy- related detoxification, including glutathione metabolism and cytochrome P450- mediated metabolism of xenobiotics. Reactome pathway analysis was performed using […]
to radiosensitivity regulation. […]
protease and phosphatase inhibitors. Total protein (20 μ g per sample) was separated […]
ABclonal, Cat. No. A5226). After three washes with TBST, membranes were […]
temperature. Protein bands were visualized using an enhanced chemiluminescence detection system (CLINX, ChemiScope 6200).
Section S6: Toxicity Studies […]
mice reached one of the predefined endpoints. The samples were then centrifuged at […]
RBC, WBC, PLT, ALT, AST, ALP, BUN, and CREA. Sample analysis was performed

[2] = test system: AR42J tumor-bearing mice; assay: Toxicity studies (blood count, blood biochemistry, histopathology)
Protocol: On day 12 post-treatment, the tumor tissues were processed and subjected to scRNA-seq and immunohistochemical (IHC) analysis (see Supplementary Methods, Section S4). […] Toxicity studies were conducted when the mice reached one of the predefined endpoints (Supplementary Methods, Section S6). […]
Section S6: Toxicity Studies
Blood samples were collected retro-orbitally using a glass capillary tube when mice reached one of the predefined endpoints. The samples were then centrifuged at 6,000 rpm for 10 minutes (Centrifuge 5417R, Eppendorf SE, Enfield, CT, USA), and the supernatant was transferred into a preventive care profile plus rotor for analysis of RBC, WBC, PLT, ALT, AST, ALP, BUN, and CREA. Sample analysis was performed

[3] = test system: AR42J tumor-bearing mice; assay: In vivo therapeutic study (tumor volume, survival, body weight); set-up: species or system BALB/c nude mice
Description: When the tumor volume reached approximately 100 mm^3, the AR42J tumor-bearing mice were randomly divided into four treatment groups (n = 8/group).
Tumor volumes and body weights were monitored every two days. The following humane endpoints were established as follows: tumor volume exceeding 1500 mm^3, weight loss greater than 15%, or observable signs of pain or distress. Mice meeting one of these criteria were euthanized.

[4] = test system: AR42J tumor-bearing mice; assay: in vivo; set-up: species or system BALB/c nude mice; details: mouse, 1 h
Protocol: To complement the imaging studies, biodistribution experiments were performed. AR42J tumor-bearing mice were intravenously injected with 3.7 MBq of [^68Ga]Ga-DOTA-CCK2R-dimer (≈ 120 pmol) or [^68Ga]Ga-DOTA-CCK-66 (≈ 210 pmol) (dissolved in 200 μL of saline; n = 3/group). The mice were sacrificed at 30, 60, and 120 min post-injection, and the tissues of interest were excised, weighed, and analyzed for radioactivity using a γ-counter. For blocking studies, a 400-fold excess of the lead compound was co-administered, and the mice were sacrificed at 1 h post-injection.
All animal studies were approved by the Ethics Committee of Fudan University
Shanghai Cancer Center (No. FUSCC-IACUC- S2023- 0003). Five-week-old female
BALB/c nude mice were purchased from Shanghai SLAC Laboratory Animal
Company. To establish cell-derived xenograft (CDX) models, 1 × 10⁶ AR42J cells
(100 μL) were subcutaneously inoculated into the right shoulder of each mouse. […]

[5] = set-up: species or system KM mice; details: mouse, in vivo, iv
Protocol: To evaluate the clearance rates of [^68Ga]Ga-DOTA-CCK2R-dimer and [^68Ga]Ga-DOTA-CCK-66 from the blood, a pharmacokinetic study was conducted in male KM mice (4-6 weeks old, 18-20 g, n = 5/group). Each mouse received 3.7 MBq of radiotracer via tail vein injection, corresponding to approximately 120 pmol of [^68Ga]Ga-DOTA-CCK2R-dimer or 210 pmol of [^68Ga]Ga-DOTA-CCK-66. Blood samples were collected from the tail vein into preweighed capillary tubes at 1, 3, 5, 10, 15, 30, 60, 90, 120, and 150 min post-injection. The radioactivity of the blood samples was measured using a γ-counter, and the percent of injected dose per gram of tissue (%ID/g) was calculated. Additionally, we assessed the in vivo stability of [^177Lu]Lu-DOTA-CCK2R-dimer. Mice were intravenously injected with 7.4 MBq (≈ 240 pmol) of [^177Lu]Lu-DOTA-CCK2R-dimer (dissolved in 200 μL of saline; n = 3/group). Urine samples were collected at 1, 4, and 24 hours post-injection, then diluted, filtered through a 0.22 μm membrane, and analyzed by radio-HPLC.
All animal studies were approved by the Ethics Committee of Fudan University […]
Shanghai Cancer Center (No. FUSCC-IACUC- S2023- 0003). […]
Pharmacokinetics in Normal Mice
F or the pharmacokinetics study, […] male KM mice (4 - 6 weeks old, weighing 18 - 20 g) were administered either [68Ga]Ga-D O TA -CCK2R-dimer or [68Ga]Ga-D O TA -CCK- 66 (3.7 MBq per mouse, n = 5/group) via tail vein injection.
Blood samples were collected from the tail vein using pre-weighed capillary tubes at […]
(§1) Radioactivity levels were measured using a gamma counter, with decay correction applied based on the injection time. The percentage of injected dose per gram of tissue (%ID/g) was calculated for each time point. […]

[6] = test system: AR42J tumor-bearing mice; assay: Ex vivo biodistribution of 177Lu-labeled compound; set-up: species or system BALB/c nude mice; details: mouse, in vivo
Protocol: To evaluate the biodistribution of [^177Lu]Lu-DOTA-CCK2R-dimer, AR42J tumor-bearing mice received intravenous (i.v.) injections of 3.7 MBq (≈ 120 pmol) of [^177Lu]Lu-DOTA-CCK2R-dimer (dissolved in 200 μL of saline; n = 3/group), and Mice were sacrificed at 1, 4, 24, 48, 72, and 96 h post-injection. The tissues of interest were excised, weighed, and analyzed for radioactivity using a γ-counter.
All animal studies were approved by the Ethics Committee of Fudan University Shanghai Cancer Center (No. FUSCC-IACUC- S2023- 0003). Five-week-old female BALB/c nude mice were purchased from Shanghai SLAC Laboratory Animal
Company. To establish cell-derived xenograft (CDX) models, 1 × 10⁶ AR42J cells (100 μL) were subcutaneously inoculated into the right shoulder of each mouse. […]
as §1

[7] = set-up: species or system mice; details: mouse, in vivo, 24 h
Protocol: In vitro stability was evaluated by incubating ~37 kBq of each radiotracer in PBS or human serum at 37 °C (n = 3). […] To further assess the in vivo stability of [^177Lu]Lu-DOTA-CCK2R-dimer, mice (n = 3) were intravenously injected with 3.7 MBq of the radiotracer in 200 μL of saline. […] The radioactivity of the blood samples was measured using a γ-counter, and the percent of injected dose per gram of tissue (%ID/g) was calculated. Additionally, we assessed the in vivo stability of [^177Lu]Lu-DOTA-CCK2R-dimer. Mice were intravenously injected with 7.4 MBq (≈ 240 pmol) of [^177Lu]Lu-DOTA-CCK2R-dimer (dissolved in 200 μL of saline; n = 3/group).

[8] = post-treatment blood biochemistry

CO[C@H]1C[C@@H]2CC[C@@H](C)[C@@](O)(O2)C(=O)C(=O)N2CCCC[C@H]2C(=O)O[C@H]([C@H](C)C[C@@H]2CC[C@@H](OCCO)[C@H](OC)C2)CC(=O)[C@H](C)/C=C(\C)[C@@H](O)[C@@H](OC)C(=O)[C@H](C)C[C@H](C)/C=C/C=C/C=C/1C [RAD001, everolimus, reference compound]
GSTK1 expression (Western blot) [1]: lower in the mTOR group than in the Veh group | GRA ([2]; post-treatment CBC): 23.97 ± 4.05% | GRA# ([2]; post-treatment CBC): 0.19 ± 0.05 109/L | HCT ([2]; post-treatment CBC): 25.73 ± 1.05% | HGB ([2]; post-treatment CBC): 178.57 ± 3.40 g/L | LYM ([2]; post-treatment CBC): 53.9 ± 5.47% | LYM# ([2]; post-treatment CBC): 0.41 ± 0.03 109/L | MCH ([2]; post-treatment CBC): 35.33 ± 0.87 pg | MCHC ([2]; post-treatment CBC): 693.67 ± 15.95 g/L | MCV ([2]; post-treatment CBC): 51.03 ± 0.57 fL | MON ([2]; post-treatment CBC): 22.13 ± 2.32% | MON# ([2]; post-treatment CBC): 0.17 ± 0.05 109/L | MPV ([2]; post-treatment CBC): 13.8 ± 0.35 fL | P-LCR ([2]; post-treatment CBC): 45.87 ± 1.03% | PCT ([2]; post-treatment CBC): 0.12 ± 0.01% | PDW ([2]; post-treatment CBC): 32.9 ± 0.3 fL | PLT ([2]; post-treatment CBC): 104.33 ± 2.52 109/L | RBC ([2]; post-treatment CBC): 5.05 ± 0.22 1012/L | RDWCV ([2]; post-treatment CBC): 11.23 ± 0.15% | RDWSD ([2]; post-treatment CBC): 23.33 ± 1.10 fL | WBC ([2]; post-treatment CBC): 7.67 ± 1.15 109/L | ALP [2, 8]: 150.68 ± 32.99 U/L | ALT [2, 8]: 43.73 ± 11.08 U/L | AST [2, 8]: 109.76 ± 13.94 U/L | UA [2, 8]: 140.92 ± 41.88 µmol/L | UREA [2, 8]: 3.49 ± 1.30 mmol/L | median survival time ([3]; Kaplan-Meier): 32 days | average tumor volume ([3]; day 10): 197.63 ± 40.92 mm³

CCCC[C@@H](C(=O)N[C@@H](CC(=O)O)C(=O)N[C@@H](Cc1cccc2ccccc12)C(N)=O)N(C)C(=O)[C@H](Cc1c[nH]c2ccccc12)NC(=O)CCOCCOCCOCCOCCNC(=O)CC[C@@H](NC(=O)CC[C@H](NC(=O)CN1CCN(CC(=O)O)CCN(CC(=O)O)CCN(CC(=O)O)CC1)C(=O)N[C@H](CCC(=O)NCCOCCOCCOCCOCCC(=O)N[C@@H](Cc1c[nH]c2ccccc12)C(=O)N(C)[C@@H](CCCC)C(=O)N[C@@H](CC(=O)O)C(=O)N[C@@H](Cc1cccc2ccccc12)C(N)=O)C(=O)O)C(=O)O [[68Ga]Ga-DOTA-CCK2R-dimer] [metal not drawn] ({DOTA}-E([d(γGlu)-PEG4-Trp-NMeNle-Asp-1Nal-NH2])[d(γGlu)][PEG4]W[NMeNle]D[1Nal]-NH2)
Bladder uptake [4]: 0.99 ± 0.77 %ID/g | Heart uptake [4]: 0.2 ± 0.15 %ID/g | Kidney uptake [4]: 12.32 ± 8.97 %ID/g | Liver uptake [4]: 3.88 ± 2.47 %ID/g | t1/2α [5]: 37.8 s

CCCC[C@@H](C(=O)N[C@@H](CC(=O)O)C(=O)N[C@@H](Cc1cccc2ccccc12)C(N)=O)N(C)C(=O)[C@H](Cc1c[nH]c2ccccc12)NC(=O)CCOCCOCCOCCOCCNC(=O)CC[C@@H](NC(=O)CC[C@H](NC(=O)CN1CCN(CC(=O)O)CCN(CC(=O)O)CCN(CC(=O)O)CC1)C(=O)N[C@H](CCC(=O)NCCOCCOCCOCCOCCC(=O)N[C@@H](Cc1c[nH]c2ccccc12)C(=O)N(C)[C@@H](CCCC)C(=O)N[C@@H](CC(=O)O)C(=O)N[C@@H](Cc1cccc2ccccc12)C(N)=O)C(=O)O)C(=O)O [[177Lu]Lu-DOTA-CCK2R-dimer] [metal not drawn] ({DOTA}-E([d(γGlu)-PEG4-Trp-NMeNle-Asp-1Nal-NH2])[d(γGlu)][PEG4]W[NMeNle]D[1Nal]-NH2)
ALP ([2]; mouse, in vivo): 135.99 ± 24.61 U/L | ALT ([2]; mouse, in vivo): 44.93 ± 6.41 U/L | AST ([2]; mouse, in vivo): 87.94 ± 5.64 U/L | GRA ([2]; mouse, in vivo): 28.7 ± 8.16% | GRA# ([2]; mouse, in vivo): 0.20 ± 0.07 109/L | HCT ([2]; mouse, in vivo): 19.2 ± 5.20% | HGB ([2]; mouse, in vivo): 151.67 ± 19.64 g/L | LYM ([2]; mouse, in vivo): 52.27 ± 2.74% | LYM# ([2]; mouse, in vivo): 0.38 ± 0.14 109/L | MCH ([2]; mouse, in vivo): 41.83 ± 6.37 pg | MCHC ([2]; mouse, in vivo): 714 ± 42.04 g/L | MCV ([2]; mouse, in vivo): 51.63 ± 0.81 fL | MON ([2]; mouse, in vivo): 19.03 ± 9.18% | MON# ([2]; mouse, in vivo): 0.15 ± 0.13 109/L | P-LCR ([2]; mouse, in vivo): 35.87 ± 5.49% | PCT ([2]; mouse, in vivo): 0.16 ± 0.04% | PDW ([2]; mouse, in vivo): 28.67 ± 2.04 fL | PLT ([2]; mouse, in vivo): 116 ± 13.08 109/L | RBC ([2]; mouse, in vivo): 4.72 ± 0.81 1012/L | RDWCV ([2]; mouse, in vivo): 10.77 ± 0.40% | RDWSD ([2]; mouse, in vivo): 22.33 ± 1.15 fL | UA ([2]; mouse, in vivo): 126.33 ± 13.85 µmol/L | UREA ([2]; mouse, in vivo): 3.25 ± 0.56 mmol/L | WBC ([2]; mouse, in vivo): 7.0 ± 2.65 109/L | MPV ([2]; post-treatment CBC): 12.2 ± 0.61 fL | Tumor-to-Muscle ratio (T/M) [6]: 90.85 | compound remaining intact in urine (radiochemical purity) [7]: more than 96%

From publication PMC12439480, “Dimeric CCK2R radiotheranostic tracers synergize with mTOR inhibition for enhanced tumor therapy” (Theranostics, 2025)
